Reference: the NIST ThermoML archive (doi:10.1016/j.jct.2010.05.002)
“And” between values parts separate entries of the source, which are not always exact repeats. Equal values may be shown once.

Assay: molar heat capacity at constant pressure
Conditions: 101.33 kPa, Vacuum adiabatic calorimetry

Cc1ccc(-c2ccccc2)cc1 [4-methylbiphenyl]
Conditions	molar heat capacity at constant pressure
200.03 K, Crystal 2	158.25 J/K/mol
201.21 K, Crystal 2	159.08 J/K/mol
202.67 K, Crystal 2	160.39 J/K/mol
204.13 K, Crystal 2	161.16 J/K/mol
205.59 K, Crystal 2	161.88 J/K/mol
207.05 K, Crystal 2	163.01 J/K/mol
208.5 K, Crystal 2	164.47 J/K/mol
209.95 K, Crystal 2	165.42 J/K/mol
211.41 K, Crystal 2	166.95 J/K/mol
212.86 K, Crystal 2	167.72 J/K/mol
214.31 K, Crystal 2	168.81 J/K/mol
215.75 K, Crystal 2	169.75 J/K/mol
217.19 K, Crystal 2	170.91 J/K/mol
218.63 K, Crystal 2	172.34 J/K/mol
220.07 K, Crystal 2	173.54 J/K/mol
221.51 K, Crystal 2	174.81 J/K/mol
224.33 K, Crystal 2	177.09 J/K/mol
225.77 K, Crystal 2	178.63 J/K/mol
227.21 K, Crystal 2	179.26 J/K/mol
228.64 K, Crystal 2	180.46 J/K/mol
230.07 K, Crystal 2	181.65 J/K/mol
231.5 K, Crystal 2	183.05 J/K/mol
232.92 K, Crystal 2	183.59 J/K/mol
234.35 K, Crystal 2	184.76 J/K/mol
235.77 K, Crystal 2	186 J/K/mol
237.2 K, Crystal 2	186.68 J/K/mol
238.62 K, Crystal 2	188.83 J/K/mol
240.04 K, Crystal 2	189.96 J/K/mol
241.46 K, Crystal 2	190.95 J/K/mol
242.88 K, Crystal 2	191.92 J/K/mol
245.71 K, Crystal 2	194.12 J/K/mol
247.06 K, Crystal 2	195.69 J/K/mol
248.47 K, Crystal 2	196.82 J/K/mol
249.87 K, Crystal 2	197.8 J/K/mol
251.28 K, Crystal 2	198.95 J/K/mol
252.68 K, Crystal 2	199.51 J/K/mol
254.07 K, Crystal 2	203.15 J/K/mol
255.46 K, Crystal 2	205.87 J/K/mol
256.86 K, Crystal 2	204.64 J/K/mol
258.26 K, Crystal 2	207.95 J/K/mol
259.65 K, Crystal 2	209.9 J/K/mol
261.05 K, Crystal 2	211.67 J/K/mol
262.45 K, Crystal 2	213.5 J/K/mol
263.84 K, Crystal 2	216.69 J/K/mol
265.26 K, Crystal 2	218.04 J/K/mol
265.74 K, Crystal 2	214.98 J/K/mol
266.62 K, Crystal 2	215.48 J/K/mol
267.35 K, Crystal 2	216.35 J/K/mol
268.06 K, Crystal 2	216.34 J/K/mol
268.77 K, Crystal 2	218.41 J/K/mol
269.46 K, Crystal 2	217.65 J/K/mol
270.14 K, Crystal 2	220.43 J/K/mol
270.81 K, Crystal 2	221.73 J/K/mol
271.48 K, Crystal 2	224.8 J/K/mol
272.13 K, Crystal 2	226.98 J/K/mol
272.79 K, Crystal 2	228.68 J/K/mol
273.44 K, Crystal 2	230.85 J/K/mol
274.09 K, Crystal 2	231.46 J/K/mol
274.73 K, Crystal 2	233.58 J/K/mol
275.38 K, Crystal 2	235.91 J/K/mol
276.02 K, Crystal 2	236.58 J/K/mol
276.54 K, Crystal 2	238.77 J/K/mol
277.18 K, Crystal 2	240.39 J/K/mol
277.82 K, Crystal 2	243.02 J/K/mol
278.45 K, Crystal 2	244.38 J/K/mol
279.09 K, Crystal 2	245.39 J/K/mol
279.72 K, Crystal 2	247.06 J/K/mol
280.35 K, Crystal 2	249.06 J/K/mol
280.98 K, Crystal 2	250.28 J/K/mol
281.61 K, Crystal 2	250.82 J/K/mol
282.22 K, Crystal 2	253.9 J/K/mol
282.84 K, Crystal 2	255.25 J/K/mol
283.47 K, Crystal 2	256.25 J/K/mol
284.09 K, Crystal 2	257.26 J/K/mol
284.71 K, Crystal 2	258.2 J/K/mol
285.32 K, Crystal 2	261 J/K/mol
285.94 K, Crystal 2	262.67 J/K/mol
286.41 K, Crystal 2	265.19 J/K/mol
287.03 K, Crystal 2	266.14 J/K/mol
287.64 K, Crystal 2	267.86 J/K/mol
288.24 K, Crystal 2	270.21 J/K/mol
289.45 K, Crystal 2	271.63 J/K/mol
290.05 K, Crystal 2	274.89 J/K/mol
290.65 K, Crystal 2	278.67 J/K/mol
291.25 K, Crystal 2	281.37 J/K/mol
291.85 K, Crystal 2	283.3 J/K/mol
292.44 K, Crystal 2	287.63 J/K/mol
293.04 K, Crystal 2	291.45 J/K/mol
293.63 K, Crystal 2	298.7 J/K/mol
294.21 K, Crystal 2	301.08 J/K/mol
294.8 K, Crystal 2	306.74 J/K/mol
295.38 K, Crystal 2	315.73 J/K/mol
295.81 K, Crystal 2	323.56 J/K/mol
296.38 K, Crystal 2	356.89 J/K/mol
296.78 K, Crystal 2	604.38 J/K/mol
298.45 K, Crystal 1	252.48 J/K/mol
299.16 K, Crystal 1	242.36 J/K/mol
299.72 K, Crystal 1	239.35 J/K/mol
300.27 K, Crystal 1	238.79 J/K/mol
300.79 K, Crystal 1	244.43 J/K/mol
301.28 K, Crystal 1	240.52 J/K/mol
301.77 K, Crystal 1	242.22 J/K/mol
302.25 K, Crystal 1	243.96 J/K/mol
302.73 K, Crystal 1	242.88 J/K/mol
303.21 K, Crystal 1	243.63 J/K/mol
303.43 K, Crystal 1	242.23 J/K/mol
303.9 K, Crystal 1	242.44 J/K/mol
304.37 K, Crystal 1	241.56 J/K/mol
304.84 K, Crystal 1	243.77 J/K/mol
305.31 K, Crystal 1	244.44 J/K/mol
305.78 K, Crystal 1	244.15 J/K/mol
306.24 K, Crystal 1	244.23 J/K/mol
306.7 K, Crystal 1	245.51 J/K/mol
307.16 K, Crystal 1	246.05 J/K/mol
307.62 K, Crystal 1	246.17 J/K/mol
308.08 K, Crystal 1	246.5 J/K/mol
308.53 K, Crystal 1	247 J/K/mol
308.98 K, Crystal 1	247.25 J/K/mol
309.43 K, Crystal 1	248.47 J/K/mol
309.88 K, Crystal 1	249.54 J/K/mol
310.32 K, Crystal 1	249.25 J/K/mol
310.48 K, Crystal 1	249.45 J/K/mol
310.92 K, Crystal 1	251.3 J/K/mol
311.36 K, Crystal 1	251.5 J/K/mol
312.31 K, Crystal 1	256.21 J/K/mol
313.97 K, Crystal 1	264.83 J/K/mol
314.78 K, Crystal 1	273.5 J/K/mol
315.57 K, Crystal 1	291.72 J/K/mol
321.28 K, Liquid	289.67 J/K/mol
322.04 K, Liquid	290.27 J/K/mol
322.79 K, Liquid	290.67 J/K/mol
323.53 K, Liquid	290.73 J/K/mol
324.28 K, Liquid	291.55 J/K/mol
325.01 K, Liquid	291.28 J/K/mol
325.74 K, Liquid	291.46 J/K/mol
326.47 K, Liquid	293.2 J/K/mol
327.19 K, Liquid	292.01 J/K/mol
327.91 K, Liquid	293.22 J/K/mol
328.27 K, Liquid	292.87 J/K/mol
328.98 K, Liquid	293.44 J/K/mol
329.68 K, Liquid	293.4 J/K/mol
330.38 K, Liquid	294.27 J/K/mol
331.07 K, Liquid	293.42 J/K/mol
331.76 K, Liquid	294.54 J/K/mol
332.45 K, Liquid	294.83 J/K/mol
333.13 K, Liquid	295.75 J/K/mol
333.8 K, Liquid	295.68 J/K/mol
334.47 K, Liquid	295.42 J/K/mol
336.41 K, Liquid	298.11 J/K/mol
337.06 K, Liquid	298.19 J/K/mol
337.7 K, Liquid	298.22 J/K/mol
338.34 K, Liquid	298.05 J/K/mol
338.57 K, Liquid	298.82 J/K/mol
339.03 K, Liquid	300.03 J/K/mol
339.2 K, Liquid	299.1 J/K/mol
340.45 K, Liquid	299.61 J/K/mol
341.07 K, Liquid	299.94 J/K/mol
341.68 K, Liquid	301.45 J/K/mol
342.29 K, Liquid	300.21 J/K/mol
342.89 K, Liquid	301.42 J/K/mol
343.49 K, Liquid	302.55 J/K/mol
344.08 K, Liquid	301.94 J/K/mol
344.67 K, Liquid	303 J/K/mol
345.25 K, Liquid	303.08 J/K/mol
346.41 K, Liquid	304.11 J/K/mol
346.98 K, Liquid	304.03 J/K/mol
347.55 K, Liquid	304.56 J/K/mol
347.66 K, Liquid	303.66 J/K/mol
348.78 K, Liquid	306.1 J/K/mol
349.3 K, Liquid	305.23 J/K/mol
349.88 K, Liquid	305.3 J/K/mol
350.42 K, Liquid	305.41 J/K/mol
350.96 K, Liquid	306.68 J/K/mol
351.49 K, Liquid	306.74 J/K/mol
352.02 K, Liquid	307.44 J/K/mol
352.55 K, Liquid	307.72 J/K/mol
353.07 K, Liquid	307.31 J/K/mol
353.59 K, Liquid	308.24 J/K/mol
354.1 K, Liquid	307.67 J/K/mol
354.61 K, Liquid	308.41 J/K/mol
355.12 K, Liquid	308.12 J/K/mol
355.62 K, Liquid	308.6 J/K/mol and 307.85 J/K/mol
356.11 K, Liquid	307.9 J/K/mol
356.61 K, Liquid	309.76 J/K/mol
357.09 K, Liquid	308.25 J/K/mol
357.58 K, Liquid	309.03 J/K/mol
358.05 K, Liquid	309.85 J/K/mol
358.53 K, Liquid	309.78 J/K/mol
359 K, Liquid	309.73 J/K/mol
359.47 K, Liquid	309.75 J/K/mol
359.53 K, Liquid	309.84 J/K/mol
360.39 K, Liquid	310.32 J/K/mol
360.84 K, Liquid	311.4 J/K/mol
361.29 K, Liquid	311.64 J/K/mol
361.74 K, Liquid	310.99 J/K/mol
362.18 K, Liquid	311.55 J/K/mol
362.52 K, Liquid	311.51 J/K/mol
362.62 K, Liquid	311.89 J/K/mol
362.96 K, Liquid	311.52 J/K/mol
363.39 K, Liquid	310.96 J/K/mol
365.49 K, Liquid	313.17 J/K/mol
365.9 K, Liquid	312.29 J/K/mol
366.3 K, Liquid	313.49 J/K/mol
366.7 K, Liquid	314.04 J/K/mol
367.1 K, Liquid	313.11 J/K/mol
367.49 K, Liquid	314.44 J/K/mol
367.88 K, Liquid	314.05 J/K/mol
368.27 K, Liquid	313.75 J/K/mol
368.45 K, Liquid	313.66 J/K/mol
368.65 K, Liquid	313.35 J/K/mol
368.82 K, Liquid	312.67 J/K/mol
369.2 K, Liquid	314.01 J/K/mol
369.57 K, Liquid	314.85 J/K/mol
369.94 K, Liquid	314.67 J/K/mol
370.3 K, Liquid	314.64 J/K/mol
370.66 K, Liquid	315.15 J/K/mol
371.02 K, Liquid	314.85 J/K/mol
371.37 K, Liquid	314.45 J/K/mol
371.71 K, Liquid	316.2 J/K/mol
372.06 K, Liquid	315.57 J/K/mol
372.39 K, Liquid	315.1 J/K/mol
